Patent publication US20210369677A1, “SMALL MOLECULE ACTIVATORS OF POLYCYSTIN-2 (PKD2) AND USES THEREOF” (Northwestern University, priority 2020, published 2021)

Biological target: T1, polycystin-2 (Homo sapiens, UniProt Q13563, C437S/C632S)
T1 construct: expressed in transfected cells
T1 sequence (Q13563 1-968 C437S/C632S): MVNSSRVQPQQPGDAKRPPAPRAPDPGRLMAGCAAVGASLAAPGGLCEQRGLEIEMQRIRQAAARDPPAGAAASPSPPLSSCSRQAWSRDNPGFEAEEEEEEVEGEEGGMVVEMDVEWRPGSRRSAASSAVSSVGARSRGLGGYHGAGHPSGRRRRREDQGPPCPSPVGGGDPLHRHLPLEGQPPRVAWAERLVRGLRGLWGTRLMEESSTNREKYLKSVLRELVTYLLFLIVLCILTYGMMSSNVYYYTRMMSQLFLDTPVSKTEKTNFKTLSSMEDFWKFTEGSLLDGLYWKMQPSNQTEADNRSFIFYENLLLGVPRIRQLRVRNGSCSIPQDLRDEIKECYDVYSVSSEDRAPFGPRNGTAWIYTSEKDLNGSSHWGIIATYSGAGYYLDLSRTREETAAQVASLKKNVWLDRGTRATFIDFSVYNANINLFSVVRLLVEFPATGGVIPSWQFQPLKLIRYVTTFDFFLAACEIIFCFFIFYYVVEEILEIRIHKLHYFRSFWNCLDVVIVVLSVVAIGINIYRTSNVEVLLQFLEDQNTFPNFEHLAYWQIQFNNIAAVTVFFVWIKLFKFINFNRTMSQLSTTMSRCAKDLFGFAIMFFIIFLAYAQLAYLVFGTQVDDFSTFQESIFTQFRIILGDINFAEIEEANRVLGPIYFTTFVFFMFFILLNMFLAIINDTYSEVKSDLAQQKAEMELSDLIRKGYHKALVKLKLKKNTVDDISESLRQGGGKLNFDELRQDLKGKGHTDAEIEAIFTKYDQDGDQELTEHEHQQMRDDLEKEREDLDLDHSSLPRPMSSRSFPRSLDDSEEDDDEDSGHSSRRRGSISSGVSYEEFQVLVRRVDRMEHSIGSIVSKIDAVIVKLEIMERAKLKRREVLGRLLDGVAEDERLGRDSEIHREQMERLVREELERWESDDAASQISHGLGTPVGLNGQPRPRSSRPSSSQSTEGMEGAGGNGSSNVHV
Format: cell-based
Details: C437S:C632S double mutant
Excerpt: Generation of HEK PKD2^Null cells line and the stable expression PKD2 variants. To generate the HEK PKD2^Null cell lines, we used a CRISPR/Cas9 gene editing kit available from Addgene (kit 1000000055). HEK 293 cells were electro-transfected with sgRNAs (caccg[…] and aaac[…]c) with the All-in-one Cas9 plasmid. […] Cells generated from single cell clones were selected after 4 weeks of expansion in a 96-wells plate. […] To generate the WT and variant PKD2 GFP or mCherry C-terminally tagged variant cell lines, the hPKD gene was subcloned into lentiviral pLVX-mcherry-N1 (Clontech) or pLVX-GFP-N1 (Clontech) vector using the Gibson assembly method. A linker encoding for six glycine residues was added between the PKD2 gene and the C-terminal tags, and missense variants were generated using standard, site-directed mutagenesis. The third-generation lentiviral packaging plasmids used for stable expression contained: pMDLg/pRRE (Addgene), […] pRSV-Rev (Addgene), and envelope expressing plasmid pMD2.G (Addgene). LentiX-293T cells (Takara) were transfected with polyethylineimine (Polysciences) at a 4:1:1:1 ratio of the transgene and viral packaging constructs. Supernatants were collected 48 and 72 hours post transfection and filtered through a 0.45 μm syringe filter. Lentiviral supernatant was concentrated 100 times using 1 volume of PEG-it (System Biosciences) virus precipitation solution and 4 volume of lentivirus-containing supernatant. The PEG-it and supernatant mixture were kept at 4 degrees for 24 hours and centrifuged at 1500 rpm for 30 minutes. The pellet containing lentivirus was resuspended with 1/100th volume of PBS of the original supernatant volume. HEK cells were infected with the lentivirus supernatant; PKD2-GFP or PKD2-mCherry expression was selected using culture media containing puromycin (2 μg/ml) for 30 to 90 days. Cells were then fluorescence-activated cell sorted (BD FacsMelody) at 5000 to 10,000 counts per minute to enrich for the transgene expression. Stable cell lines were cultured in Dulbecco's modified essential medium (DMEM) supplemented with 10% fetal bovine serum (FBS) and 100 units/ml penicillin, 100 units/ml streptomycin and 1 μg/ml puromycin selection antibiotic.
Electrophysiology. Ciliary ion currents were recorded using borosilicate glass electrodes polished to resistances of 14-22 MΩ using the cilium patch method previously described^32. Whole cell electrodes used to measure poly cystin-2L1 currents were fire polished to 1.5-4 MΩ resistances. Unless otherwise stated, whole cilia ionic currents were recorded in symmetrical [Na^+]. The pipette standard internal solution contained (in mM): 90 NaMES, 10 NaCl, 10 HEPES, 10 Na4-BAPTA (Glycine, N, N′-[1,2-ethanediylbis(oxy-2,1-phenylene)]bis[N-(carboxymethyl)]-,tetrasodium); pH was adjusted to 7.3 using NaOH. Standard bath solution contained 140 NaCl, 10 HEPES, 1.8 CaCl2); pH 7.4. All solutions were osmotically balanced to 295 (±6) mOsm with mannitol. Extracellular solutions containing TCEP and GSH were used within six hours of formulation. Data were collected using an Axopatch 200B patch clamp amplifier, Digidata 1440A, and pClamp 10 software. Whole-cilium and excised patch currents were digitized at 25 kHz and low-pass filtered at 10 kHz. In the whole cilium configuration, the holding potential was −60 mV and then depolarized using a 400 ms voltage ramp from −100 mV to 100 mV. The whole cell recordings of polycystin-2L1 currents were either activated by the same ramp protocol or by 100 ms depolarizations to 100 mV from a −100 mV holding potential.

| SMILES | Effect on C437S:C632S double mutant channel cilia current |
| --- | --- |
| O=C(O)CCP(CCC(=O)O)CCC(=O)O [TCEP, tris-2-carboxyethyl phosphine] | retained its sensitivity |
| N[C@@H](CCC(=O)N[C@@H](CS)C(=O)NCC(=O)O)C(=O)O [GSH, reduced glutathione] | retained its sensitivity |
